Key:
Miapaca-2 cells = experiment: MiaPaca-2 Combination Cell proliferation Assay (1) with cobimetinib; assay type: cell-based; settings: MiaPaca-2 cell proliferation, read-out: MiaPaca-2 Combo (1) IC50
WM3629 cells = experiment: WM3629 Cell Proliferation Assay (1); assay type: cell-based
Procedure: WM3629 Cell Proliferation Assay (1)
WM3629 cells (#WM3629-01-0001) are obtained from Rockland Immunochemicals Inc (Gilbertsville, PA). Briefly, cells were grown in MCDB 153 medium (Sigma, #M7403, St. Louis, MO) supplemented with 20% Leibovitz's L-15 (ThermoFisher #11415-064, Waltham, MA), 2% heat inactivated fetal bovine serum (ThermoFisher, #A3840001, Waltham, MA), 5 μg/mL Insulin (Bovine Pancreas) (Sigma, #10516, St. Louis, MO), 1.68 mM Calcium Chloride (Sigma, #C-34006, St. Louis, MO) and 1% Penicillin/Streptomycin/L-Glutamine (ThermoFisher #10378016, Waltham, MA) at 37° C., 5% CO2, and 95% humidity. Cells are expanded until reaching 70-95% confluency at which point they are subcultured or harvested for assay use. A serial dilution of test compound is dispensed into a 96-well black clear bottom plate in triplicate. Four thousand five hundred cells are added per well in 200 μL complete growth medium in the 96-well plate. Plates are incubated for 67-72 hours at 37° C., 5% CO2, and 95% humidity. At the end of the incubation, 40 μL of a 440 μM solution of resazurin (Sigma, #199303, St. Louis, MO) in PBS is added to each well of the plate and plates are incubated for an additional 6-7 hours at 37° C., 5% CO2, and 95% humidity. Plates are read on a Synergy2 or equivalent reader (Biotek, Winooski VT) using an excitation of 540 nm and an emission of 600 nm. Data is analyzed using Prism software (GraphPad, San Diego, CA) to calculate IC50 values.

Row | Compound | IC50 (Miapaca-2 cells) [nM] | IC50 (WM3629 cells) [nM]
1 | CCOc1cc(-c2cc(NC(=O)c3ccnc(C(F)(F)F)c3)ccc2C)cc(-c2ccnc(NC(=O)C3CC3)c2)n1 [Example 12] | 100 to 500 | 
2 | CC(=O)Nc1cc(-c2cc(-c3cc(NC(=O)c4ccnc(C(F)(F)F)c4)ccc3C)cc(N3CCOCC3)n2)ccn1 [Example 15] | ≤ 100 | 
3 | CC(=O)Nc1cc(-c2cc(-c3cc(NC(=O)c4ccnc(C(C)(C)C#N)c4)ccc3C)ccn2)ccn1 [Example 19] | ≤ 100 | 
4 | Cc1ccc(NC(=O)c2ccnc(C(C)(C)F)c2)cc1-c1ccnc(-c2ccnc(NC(=O)C3CC3)c2)n1 [Example 186] |  | ≤ 100
5 | Cc1ccc(NC(=O)c2ccnc(C3(C#N)CC3)c2)cc1-c1nccc(-c2ccnc(NC(=O)C3CC3)c2)n1 [Example 187] |  | ≤ 100
6 | Cc1ccc(NC(=O)c2ccnc(C(F)F)c2)cc1-c1ccnc(-c2ccnc(NC(=O)C3CC3)c2)n1 [Example 189] | 100 to 500 | 
7 | Cc1ncc(NC(=O)c2ccnc(C(C)(C)C#N)c2)cc1-c1ccnc(-c2ccnc(NC(=O)C3CC3)c2)n1 [Example 193] | ≤ 100 | 
8 | Cc1ccc(NC(=O)c2ccnc(C(C)(C)C#N)c2)cc1-c1cccc(-c2cc(NC(=O)C3(C)CC3)ncn2)c1 [Example 197] | 100 to 500 | 
9 | Cc1cc(-c2cc(NC(=O)C3CC3)ncn2)cc(-c2cc(NC(=O)c3ccnc(C(C)(C)C#N)c3)ccc2C)c1 [Example 212] |  | ≤ 100
10 | CNC(=O)c1cc(-c2cc(-c3cc(NC(=O)c4ccnc(C(C)(C)F)c4)ccc3C)ccn2)ccn1 [Example 214] | 100 to 500 | ≤ 100
11 | Cc1ncc(NC(=O)c2ccnc(C(C)(C)C#N)c2)cc1-c1cccc(-c2ccnc(NC(=O)C3CC3)c2)c1 [Example 222] | ≤ 100 | ≤ 100
12 | Cc1ccc(NC(=O)c2ccnc(C(C)(C)C#N)c2)cc1-c1cccc(-c2ccnc(NC(=O)C3CC3)c2)c1 [Example 223] | ≤ 100 | 
13 | Cc1ccc(NC(=O)c2ccnc(C(C)(C)C#N)c2)cc1-c1cncc(-c2cc(NC(=O)C3CC3)ncn2)c1 [Example 224] | ≤ 100 | ≤ 100
14 | COC(=O)Nc1cc(-c2cccc(-c3cc(NC(=O)c4ccnc(C(C)(C)C#N)c4)cnc3C)c2)ncn1 [Example 225] | ≤ 100 | 
15 | Cc1ccc(NC(=O)c2ccnc(C3CC3)c2)cc1-c1ccnc(-c2ccnc(NC(=O)C3CC3)c2)n1 [Example 229] |  | ≤ 100
16 | Cc1ccc(NC(=O)c2ccnc(C(C)(C)C#N)c2)cc1-c1cnnc(-c2ccnc(NC(=O)C3CC3)c2)c1 [Example 230] | ≤ 100 | 
17 | CNC(=O)c1cc(-c2cncc(-c3cc(NC(=O)c4ccnc(C(C)(C)C#N)c4)ccc3C)c2)ncn1 [Example 235] | 100 to 500 | ≤ 100
18 | Cc1ccc(NC(=O)c2ccnc(C(C)(C)C#N)c2)cc1-c1ccnc(-c2ccnc(NC(=O)C3(C#N)CC3)c2)n1 [Example 241] | 100 to 500 | 
19 | Cc1ccc(NC(=O)c2ccnc(C(C)(C)C#N)c2)cc1-c1cc(-c2ccnc(NC(=O)C3CC3)c2)cnn1 [Example 245] | ≤ 100 | ≤ 100
20 | Cc1ncc(NC(=O)c2ccnc(C(C)(C)F)c2)cc1-c1cccc(-c2cc(NC(=O)C3CC3)ncn2)c1 [Example 249] | ≤ 100 | ≤ 100
21 | Cc1ncc(NC(=O)c2ccnc(C(C)(C)C#N)c2)cc1-c1ccnc(-c2ccnc(NC(=O)C3CC3)c2)c1 [Example 251] | ≤ 100 | 
22 | Cc1ccc(NC(=O)c2ccnc(C(C)(C)C#N)c2)cc1-c1ccnc(-c2ccnc(NC(=O)C3CC3)c2)n1 [Example 257] | ≤ 100 | 
23 | CNC(=O)c1cc(-c2cc(-c3cc(NC(=O)c4ccnc(C(C)(C)OC)c4)ccc3C)ccn2)ccn1 [Example 264] |  | ≤ 100
24 | CNC(=O)c1cc(-c2cc(-c3cc(NC(=O)c4ccnc(C5(C#N)CC5)c4)ccc3C)ccn2)ccn1 [Example 265] | 100 to 500 | 
25 | COC(C)(C)c1cc(C(=O)Nc2cnc(C)c(-c3cccc(-c4cc(NC(=O)C5CC5)ncn4)c3)c2)ccn1 [Example 274] | ≤ 100 | ≤ 100
26 | Cc1ncc(NC(=O)c2cnn(C(C)(C)C)c2)cc1-c1cccc(-c2cc(NC(=O)C3CC3)ncn2)c1 [Example 279] | ≤ 100 | 
